What was measured:
NQO1 = assay: NAD(P)H recycling assay (decrease of NAD(P)H by NQO1-activating candidate compounds); format: biochemical; details: for Residual amount of NAD(P)H(%): relative amount of NAD(P)H, amount in the absence of the NQO1 activator taken to be 100; for decrease of NAD(P)H and consequent body weight reduction: summary of Table 1 in words
Method: (10) NAD(P)H Recycling Assay
An NADH recycling assay was carried out using the above-extracted S9 supernatant or human recombinant NQO1 (hrNQO1). 20 μg of the S9 supernatant or 0.5 unit of hrNQO1 in conjunction with 200 μM NAD(P)H were added to a 25 mM Tris/HCl (pH 7.4) solution containing 0.2 mg/mL bovine serum albumin. The enzymatic reaction was initiated with addition of a […] compound and absorbance changes were monitored and recorded at 340 nm for 10 min.
(§1) For a variety of NQO1-activating candidate compounds as listed in Table 1 below, a decrease of NAD(P)H was measured based on the aforesaid experimental method (disclosed in Section 10 hereinbefore: NADH recycling assay). In addition, according to the experimental method given in Example 23, the body weight of ob/ob mice after four weeks was measured.
(§2) In this connection, the decreasing degree of NAD(P)H was expressed as a relative amount of NAD(P)H measured upon administration of the NQO1-activating candidate compound, by taking the amount of NAD(P)H in the absence of the NQO1 activator NAD(P)H to be 100. In addition, the degree of the body weight loss was expressed as a percentage of the body weight of ob/ob mice with administration of the NQO1-activating candidate compound, relative to the body weight of ob/ob mice without administration of the NQO1-activating candidate compound (control) after four weeks.

[1] = body weight and dietary intake of leptin receptor-deficient (ob/ob) mice; format: in vivo, mouse; details: for Weight reduction In ob/ob mice (4 wk): after four weeks, relative to ob/ob mice without administration (control), method of Example 23
Method: All experimental animal procedures were performed according to a guideline of Institutional Animal Care and Use Committee, Chungnam National University School of Medicine. OLETF rats were purchased from Otsuka Research Institute. Male ob/ob and C57BL/6 mice were purchased from Jackson Laboratory. Animals were housed in a breeding room maintained at a constant temperature of […] and a 12 h/12 h light/dark (L/D) cycle. 4-week-old C57BL/6 male mice were fed ad libitum high fat diet (HFD, 24% (w/w) and 45% calories as fat, Research Diets Inc., New Brunswick, N.J. 08901, US) for 7 weeks. Mouse groups were divided into an untreated group, a vehicle-treated group (calcium silicate), a pair-fed group and a candidate compound-treated group (calcium silicate-coated […] nanoparticles). Body weight and dietary intake of animals were daily measured. Upon completion of experiments, some mice of each group were anesthetized and received MRI examinations. The remaining mice of the groups were anatomized and tissue weight thereof was measured. Epidydimal fat, liver, soleus muscle and extensor digitorum longus (EDL) were prepared, and immunohistochemical, oil-red 0 and pH-sensitive ATPase staining were performed for analysis.
FIGS. 46 and 47 show changes in dietary intake/body weight and changes in body weight for 56 days, according to daily administration of pyrano-1,2-naphthoquinone into leptin receptor-deficient (ob/ob) mice at a dose of 200 mg/kg via an oral route.
This Example was intended to examine effects of varying in vivo NAD(P)^+/NAD(P)H ratio by arbitrary external supply of NAD(P)^+, a method capable of elevating the NAD(P)^+/NAD(P)H ratio in vivo. 100 mg/kg of NAD^+ was administered daily to leptin receptor-deficient (ob/ob) mice via an intraperitoneal (i.p.) route. A control mice group was given i.p. administration of physiological saline at the same dose. Changes in dietary intake/body weight (A) and changes in body weight (B) were measured for 30 days.
200 mg/kg of DMF was daily administered to leptin receptor-deficient (ob/ob) mice via an oral route. A control group received daily i.p. administration of physiological saline at the same dose. Changes in body weight (A) and changes in dietary intake (B) were measured for 30 days. It was confirmed that dietary intake of the treatment group was regulated to a 60 to 70% level of the control group.
as §1, §2

AMPK = AMPK phosphorylation in HEK293 cells (Western blot); format: cell-based, human; details: HEK293 cells, AICAR 2 mM, 30 min
Method: Cells were lysed in SDS sample buffer (62.5 mM Tris HCl (pH 6.8), 6% (w/v) SDS, 30% glycerol, 125 mM DTT, and 0.03% (w/v) bromophenol blue). The total cell lysates were boiled at a temperature of 100° C. for 5 min and electrophoresed on a sodium dodecyl sulfate-polyacrylamide gel, and proteins were transferred on a nitrocellulose membrane. The membrane was reacted in TBS (5% (w/v) milk and 0.1% Tween 20) for 1 hour, and then reacted with primary antibodies for 2 hours. Next, the membrane was developed using HRP-conjugated secondary antibodies (Phototope-HRP Western Blot Detection Kit, New England Biolabs, Beverly, Mass.).
In order to investigate the importance of an NQO1 protein in phosphorylation of AMP kinase, HepG2, MCF-7 and HEK293 cells were seeded onto 60 mm plates at a density of 1×10^6 cells/plate. After growing the cells for 24 hours, the culture medium was replaced with a serum-free medium, and cells were treated with pyrano-1,2-naphthoquinone (10 μM) for 30 min, respectively, in combination with a control group (DMSO). Cells were lysed in RIPA buffer and amounts of all proteins were quantified using a spectrophotometer, and 50 μg of the protein was subjected to electrophoresis. AMP kinase phosphorylation was examined using Anti-AMPK and Anti-pT172-AMPK, whereas the NQO1 protein was assayed using Anti-NQO1. From the fact that AMP kinase phosphorylation by pyran-1,2-naphthoquinone (10 μM) was not observed in HEK293 cells, it can be seen that the NQO1 protein is crucial for phosphorylation of AMP kinase.
In order to examine that an activity of NQO1 is important for the phosphorylation of AMP kinase, HEK293 cells were seeded onto a 6-well plate at a density of 1×10^5 cells/well, cultured for 24 hours, and transfected with pSG5-HA-NQO1 (500 ng) and pSG5-HA-NOQ1-C609T (500 ng) plasmids. After 24 hours, the culture medium was replaced with a serum-free medium, and the cells were treated with pyrano-1,2-naphthoquinone (10 μM) and AICAR (2 mM) for 30 min, in combination with a control (DMSO). AMP kinase phosphorylation were assayed using Anti-AMPK and Anti-pT172-AMPK, whereas transfected NQO1 was assayed using Anti-HA.
In addition, AMPK phosphorylation/activation was not promoted in HEK293 cells, except for HEK293 cells transfected with wild type NQO1.

HepG2 cells [2] = assay: calcium influx (Fluo-4) in HepG2 cells; format: cell-based, human; details: dicoumarol 5 μM pretreated 30 min
Method: Cells were grown on a coverslip in a culture medium for 24 hours, maintained in an RPMI 1640 serum-free medium for 1 hour, and pretreated with a calcium indicator Fluo-4 (5 μM) for 30 min. After pretreatment, the coverslip was mounted on a slide glass. Changes in an intracellular calcium concentration were observed using a fluorescence microscope (Carl Zeiss) for 30 sec, and cells were treated with a candidate compound (e.g. pyran-1,2-naphthoquinone) simultaneously with consecutive imaging of calcium changes using a fluorescence microscope (Carl Zeiss) for 2 sec. […] Changes in the intracellular calcium concentration were observed using a fluorescence microscope (Carl Zeiss) for 30 sec, and cells were treated with pyre-1,2-naphthoquinone (10 μM), followed by continuous shooting of calcium changes using a fluorescence microscope for 2 sec. Using an LSM Image Browser program (Carl Zeiss), 300 images taken for 10 min every 2 seconds were sorted and ordered in a time sequence and plotted on a graph.
For determination of the inner mitochondrial membrane potential (ΔΨm), 20 nM of TMRE (tetramethylrhodamine ethyl ester) as a fluorescent indicator was continuously applied to be loaded on cells. In order to monitor mitochondrial Ca^2+, cells on glass coverslips were loaded with 10 μM Rhod-2 AM via cold loading/warm incubation. In order to monitor cytosolic Ca^2+, cells were co-loaded with 10 μM Fluo-4 AM at 37′C for 30 min. […] Images for TMRE (red fluorescence), Rhod-2 (red fluorescence) and Fluo-4 (green fluorescence) were obtained using an inverted Zeiss 510META laser-scanning confocal microscope equipped with ×63 numerical aperture, 1.4 oil-immersion planapochromat lens. Green fluorescence and red fluorescence were illuminated with light of 488 nm and 543 nm. […]
Cells were cultured for 24 hours and then pre-treated with Fluo-4 for 30 min. Cells immobilized on a coverslip were transferred to a slide glass and treated with pyrano-1,2-naphthoquinone (10 μM), and at the same time images were taken every 2 seconds for 10 min using a fluorescence microscope.

HepG2 cells [3] = assay: mitochondrial membrane potential (TMRE fluorescence) in HepG2 cells; format: cell-based, human; details: dicoumarol-treated cells
Method: For determination of the inner mitochondrial membrane potential (ΔΨm), 20 nM of TMRE (tetramethylrhodamine ethyl ester) as a fluorescent indicator was continuously applied to be loaded on cells. In order to monitor mitochondrial Ca^2+, cells on glass coverslips were loaded with 10 μM Rhod-2 AM via cold loading/warm incubation. In order to monitor cytosolic Ca^2+, cells were co-loaded with 10 μM Fluo-4 AM at 37′C for 30 min. The cells were washed twice with a KB solution, and mounted in a perfusion chamber. Fluorescent imaging was taken using a confocal laser scanning microscope (LSM-510 META, Carl Zeiss) at a magnification of ×200 and ×400, in conjunction with appropriate laser lines and a filter set. Image analysis was carried out using LSM-510 META software (Zeiss). Images for TMRE (red fluorescence), Rhod-2 (red fluorescence) and Fluo-4 (green fluorescence) were obtained using an inverted Zeiss 510META laser-scanning confocal microscope equipped with ×63 numerical aperture, 1.4 oil-immersion planapochromat lens. Green fluorescence and red fluorescence were illuminated with light of 488 nm and 543 nm. Incident light was passed through a 545 nm dichroic mirror and observed via a 500 to 530 nm band-pass (green) filter and a 560 nm long-pass (red) barrier filter.
However, such effects were not observed in HEK293 cells. […]

Structure (SMILES)	Residual amount of NAD(P)H(%) (NQO1)	decrease of NAD(P)H and consequent body weight reduction (NQO1)	Weight reduction In ob/ob mice (4 wk) [1]	further results
CC1C2=C(OC1(C)C)c1ccccc1C(=O)C2=O (centres unmarked) [2,2,3-Trimethyl-2,3-dihydro-naphtho[1,2-b]furan-4,5-dione]	52.75 ± 1.88	significant decrease of NAD(P)H	−27.9 ± 0.5%	–
CC1(C)CC2=C(O1)c1ccccc1C(=O)C2=O [2,2-Dimethyl-2,3-dihydro-naphtho[1,2-b]furan-4,5-dione]	45.9 ± 3.90	significant decrease of NAD(P)H	−27.8 ± 8.1%	–
CC1(C)CCC2=C(O1)C(=O)c1ccccc1C2=O [2,2-Dmethyl-3,4-dihydro-2H-benzo[g]chromene-5,10-dione]	95 ± 4.5	–	1.3 ± 2.8%	–
CC1OC2=C(C(=O)C(=O)c3ccccc32)C1(C)C (centres unmarked) [2,3,3-Trimethyl-2,3-dihydro-naphtho[1,2-b]furan-4,5-dione]	64.39 ± 1.69	significant decrease of NAD(P)H	−46.2 ± 11.1%	–
CC(C)=C/C(C)=C/C1(C)OC2=C(CC1C)C(=O)C(=O)c1ccccc12 (centres unmarked) [2-(2,4-Dimethyl-penta-1,3-dienyl)-2,3-dimethyl-3,4-dihydro-2H-benzo[h]chromene-5,6-dione]	98.06 ± 5.14	–	−2.2 ± 0.07%	–
CC1CC2=C(O1)c1ccccc1C(=O)C2=O (centres unmarked) [2-Methyl-2,3-dihydro-naphtho[1,2-b]furan-4,5-dione]	49.73 ± 1.98	significant decrease of NAD(P)H	−39.5 ± 3.1%	–
CC(C)=CC1(C)CCC2=C(O1)C(=O)c1ccccc1C2=O (centres unmarked) [2-Methyl-2-(2-methyl-propenyl)-3,4-dihydro-2H-benzo[g]Chromene-5,10-dione]	99.74 ± 2.69	–	−0.7 ± 2.0%	–
CC(C)C1=CC2OC3=C(CC2(C)CC1)C(=O)c1ccccc1C3=O (centres unmarked) [3-Isoprophy-12a-methyl-2,4a,12,12a-tetradro-7H-benzo[b]xanthene-6,11-dione]	99.45 ± 3.56	–	0.3 ± 2.8%	–
CC(C)C1=CC2OC3=C(CC2(C)CC1)C(=O)C(=O)c1ccccc13 (centres unmarked) [10-Isopropyl-7a-methyl-7a,8,9,11a-tetrahydro-7H-benzo[c]xanthene-5,6-dione]	77.55 ± 4.19	significant decrease of NAD(P)H	−6.7 ± 2.1%	–
NC(=O)c1ncn([C@@H]2O[C@H](CO)[C@@H](O)[C@H]2O)c1N [AICAR, 5-aminoimidazole-4-carboxamide-1-beta-D-ribofuranoside, reference compound]	–	–	–	phosphorylation of AMPK (AMPK): increase in phosphorylation of AMPK
COC1=C(OC)C(=O)C(C/C=C(\C)CC/C=C(\C)CC/C=C(\C)CC/C=C(\C)CC/C=C(\C)CC/C=C(\C)CC/C=C(\C)CC/C=C(\C)CC/C=C(\C)CCC=C(C)C)=C(C)C1=O [CoQ10, reference compound]	101.69 ± 1.32	–	2.3 ± 3.5− %	–
CC1=CC(=O)c2ccccc2C1=O [Menadione, 2-Methyl-1,4-naphthoquinone, reference compound]	85.65 ± 2.58	–	−2.7 ± 2.0%	–
NC(=O)c1ccc[n+]([C@@H]2O[C@H](COP(=O)([O-])OP(=O)(O)OC[C@H]3O[C@@H](n4cnc5c(N)ncnc54)[C@H](O)[C@@H]3O)[C@@H](O)[C@H]2O)c1 [NAD^+]	–	–	–	body weight ([1]; NAD+ 100 mg/kg daily i.p., 30 days): continuous weight loss for 30 days; dietary intake/body weight ([1]; NAD+ 100 mg/kg daily i.p., at around 10 days): notably decreased
O=c1oc2ccccc2c(O)c1Cc1c(O)c2ccccc2oc1=O [dicoumarol, reference compound]	–	–	–	effect on calcium influx by pyrano-1,2-naphthoquinone (HepG2 cells [2]): inhibited; effects of βL on ΔΨm in dicoumarol-treated cells (HepG2 cells [3]): did not exhibit such effects
